Legend:
[1] = test system: SKW3 cell binding to ICAM-R; test: Peptide inhibition of SKW3 cell adhesion to soluble ICAM-R coated plastic; format: cell-based, human; conditions: peptide at 1-2 mg/ml; PMA; soluble ICAM-R coated wells
Excerpt: Based on amino acid sequence alignment with known β1 integrin binding domains in fibronectin and based on epitope mapping of anti-ICAM-R monoclonal antibodies that block cell adhesion (see Table 11 in Example 22), ICAM-R peptides corresponding to potential integrin binding sites were synthesized by Macromolecular Resources (Colorado State University, Fort Collins, Colo.). Four ICAM-R sequences which lie between or at the border of predicted beta strands in domains 1 and 3 of were chosen. Similar but not identical β-strand predictions for ICAM-1 are set out in Staunton et al., Cell, 61: 243-254 (1990). Inhibition was assayed using a system involving cell adhesion to soluble ICAM-R coated plastic. Calcein-labeled cells (see Example 7 Section A above) were incubated with peptide at 1-2 mg/ml for 20 minutes at 25° C. and the cells were transferred to wells of a 96-well plate previously coated with soluble ICAM-R (see Example 10) and containing 10 μg/ml final concentration phorbol 12-myristate 13-acetate (PMA). After 50 minutes, the plate was inverted in PBS for 10 minutes to remove unbound cells. Bound cells were quantitated using a fluorescence concentration analyzer.

human PBL = test: Tyrosine phosphorylation in PBL after crosslinking; format: cell-based; conditions: soluble antibody 30 ug/ml, goat anti-mouse IgG 100 ug/ml
Description: Human PBL was obtained by Ficoll-Hypaque centrifugation and were incubated for 5 minutes with soluble ICR-4.2, OKT3 or anti-HLA-(1×10^7 cells were incubated with each antibody at 30 ug/ml). The cells were then washed and goat anti-mouse IgG (Cappell) was added to a final concentration of 100 ug/ml. After varying periods of time, the cells were lysed in detergent and lysates were electrophoresed on a 10% acrylamide gel, transferred to blotting paper. Blots were then probed with the anti-phosphotryosine antibody 4G10.

Jurkat T cells = test: MIP-1 alpha ELISA, Jurkat on co-immobilized antibodies; format: cell-based, human; conditions: anti-ICAM-R 10 μg/ml co-immobilized with sub-optimal OKT3; OKT3 = sub-optimal concentration alone
Description: In addition to induction in monocytes, the expression of MIP-1 alpha in the Jurkat T leukemic cell line upon treatment with ICR-5.1, ICR-4.2 or ICR-9.2 was also examined. A sub-optimal dose of anti-CD3 antibody OKT3 (500 ng/ml) in PBS-CMF was plated onto flat-bottomed 96-well polystyrene plates and incubated overnight at 4° C. Then, after removing well contents, monoclonal antibody OKT3, ICR-5.1, ICR-4.2, or ICR-9.2 (10 μg/ml in PBS-CMF) was plated overnight at 4° C. Wells were blocked with 1% BSA in PBS-CMF at 37° C. for 1 hour and then rinsed in PBS-CMF. Jurkat T cells were seeded into wells at 2×10^5/well in RPMI/10%FCS+10 μg/ml polymyxin B—SO4. Cells were incubated in wells for 4, 6, or 8 hours or overnight at 37° C. in 5% CO2. Supernatants were harvested by transferring well contents to round-bottomed 96-well polystyrene plates, harvested by centrifuging for 5 minutes at 1200 rpm and by re-transferring to new round-bottomed plates. MIP-1 alpha release into the cell supernatant was assayed by a specific ELISA for MIP-1 alpha.

Jurkat T leukemic cells = test: F-actin and G-actin cell content; format: cell-based, human; conditions: ICR-1.1 without gam
Description: Cellular shape changes (such as cell spreading) as well as T-cell activation are associated with changes in the cytoskeletal actin network manifested by alteration of the ratio of globular actin (G-actin) to filamentous actin (F-actin). To test whether the engagement by ICAM-R antibodies of ICAM-R expressed on Jurkat T leukemic cells would induce changes in cellular actin ratios, studies measuring F-actin and G-actin cell content were carried out by methods known in the art.

HL60 cells = test: IL-8 release from HL60; format: cell-based, human
Description: Monocytes were isolated by elutriation from peripheral blood of normal donors. […] After blocking free sites, the cells were placed into the wells in medium. […] Those cells plated in wells treated with BSA plus or minus LPS were rounded and not spread. After 8 or 18 hours of incubation at 37° C., the medium was removed and assayed for IL-8 immunoreactivity. […] By 18 hours, IL-8 levels in media from ICR monoclonal antibody wells were much elevated over control levels. […] Similar experiments with monocytic cell lines (U937 and HL60) to determine if ICR monoclonal antibody can induce IL-8 release were conducted. U937 cells responded to each of the ICR monoclonal antibody treated wells by releasing IL-8 into the conditioned medium. […] No detectable morphological changes were detected with the U937 or HL60 cells.

THP-1 cells = test: MIP-1 alpha secretion by THP-1 on immobilized soluble LFA-1; format: cell-based, human; conditions: background approximately 100 pg/ml
Description: A soluble version of LFA-1, when immobilized onto plastic wells, induced THP-1 cells to secrete approximately […] MIP-1 alpha, whereas background levels were approximately 100 pg/ml.

ICAM-1 70-74: ICAM-1 domain 1 peptide (DGQST, SEQ ID NO: 25)
% Inhibition CD18-Dependent Binding (SKW3) [1]: did not inhibit binding

OKT3: anti-CD3 antibody [reference compound]
tyrosine phosphorylation after crosslinking (human PBL): Phosphorylation of substrates were also observed
MIP-1 alpha expression relative to BSA background (Jurkat T cells): three-fold
time to peak F-actin content (Jurkat T leukemic cells; OKT3 plus gam): ≤ 10 min
F-actin content (Jurkat T leukemic cells; OKT3 plus goat anti-mouse crosslinker (gam)): rapid, transient increase in F-actin content

lipopolysaccharide [LPS]
IL-8 release (HL60 cells): did induce a marked release

soluble version of LFA-1: soluble version of LFA-1 immobilized onto plastic wells
MIP-1 alpha secreted (THP-1 cells): approximately 1000 μg/ml

Source: patent US20040248211A1, “ICAM-related protein” (priority 1992, published 2004)
